What is called IC50 is the concentration that inhibits the measured activity by half.

The text below walks through data of patent US12187758B2 (ROME Therapeutics, Inc., priority 2022, dated 2025).

Common to all, as to assay type: cell-based
One series has as its system PC3 cells. Briefly: Mitochondria toxicity assay with PC3 cells, cytotoxicity (Cell Titer Glo). The settings on record: Homo sapiens, PC-3, 120 h, 5 days treatment. Summed up: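 PC3 cells in F-12K with 10% FBS exposed to a compound dose titration for 5 days at 37° C, 5% CO2. Viability by Cell Titer Glo luminescence after 30 min at room temperature; values binned A (<1.0 μM) to E (>100.0 μM).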
For orientation: Cellular ATP, detected with luciferase, serves as a proxy for viable cell number.

The subject of series [1] is phosphorylated TANK-binding kinase 1 (pTBK1). Briefly: UVB-induced pTBK1 in HaCaT cells. The settings on record: for IC50: Homo sapiens, light or radiation study, pTBK1 response curves, 72 hours compound treatment, UVB. Here is the method: pTBK1 is an important signaling molecule in regulating inflammatory responses. HaCaT cells were plated in 6-well plates at a density of ˜100 k/well in HaCaT media (DMEM, optimized 1× (Addex Bio)+ 1% pen strep (Gibco)^+ 5% heat inactivated fetal bovine serum (Gibco)). The cells were then cultured at 37° C. overnight. The next day, the cells were treated with the test compounds. Each test compound was diluted and added to media aliquots to provide desired concentrations. To add the test compound+media mixture, an equivalent amount of media from each well was aspirated and then replenished with the media dosed with the test compound. The cells were then cultured for an additional 72 hours with compound treatment prior to UVB exposure.
The media was then aspirated from the wells, with the remaining cells at least 80% confluent in each well. One mL of PBS was then added to each well, and the plate was then placed under a UVB lamp. A UVB sensor was positioned near the plate to register the plate's exposure. The cells were exposed to the UVB light until they reached 0.1 mJ/cm2. Then the plate was covered and transferred to a sterile hood for processing.
The PBS was aspirated out of the wells, and the wells were replenished with 3 mL fresh culture media. The cells were then cultured for an additional 24 hours, and samples were processed 24 hours post-UVB exposure. To process the samples, the media was aspirated, the plate placed on ice, and the cells washed with cold PBS, which was then aspirated off. Another 1 mL of cold PBS was added to each well. The cells were then scraped in the cold PBS solution and transferred to conical tubes on ice. The cells were then spun at ≥1000 RCF at 4° C. for 5 minutes. The cells were then resuspended in 1 mL of cold PBS and transferred to a microcentrifuge tube. The cells were spun at ≥1000 RCF at 4° C. for another 5 minutes, and the PBS was aspirated off. The cell pellet was prepared for lysis.
A RIPA lysis buffer (#BP-115, Boston BioProducts) was added to a Halt protease and […] inhibitor cocktail (#78440, ThermoFisher), and the mixture was cooled on ice. About 30 μL of the lysis buffer mix was added to the cells. The samples were briefly vortexed and then incubated on ice for at least 15 minutes. The cells were then spun≥1000 RCF at 4° C. for 5 minutes and the supernatant was transferred to a clean tube. The protein concentration of the cell lysate was measured using Pierce™ Rapid Gold BCA Protein Assay Kit #AF3225 (ThermoFisher). ELISA analysis was run on select samples using one of the following kits: • a. FastScan™ Phospho-TBK1/NAK (Ser172) ELISA Kit #46948 (Cell Signaling Technologies) • b. FastScan™ Total TBK1/NAK ELISA Kit #15816 (Cell Signaling Technologies) • c. FastScan™ Phospho-STING (Ser366) ELISA Kit #82083 (Cell Signaling Technologies) • d. FastScan™ Phospho-IRF-3 (Ser396) ELISA Kit #50386 (Cell Signaling Technologies) • e. FastScan™ Total IRF-3 ELISA Kit #29771 (Cell Signaling Technologies) • f. Phospho-NAK/TBK1 (S172) ELISA Kit (ab279952) (Abcam) • g. Phospho-IRF3 (S386) ELISA Kit (ab279833) (Abcam) Part II—Results
In the table “A” represents values≤0.50 μM; “B” represents values from >0.50 μM to ≤2.0 μM; “C” represents values from >2.0 μM to ≤5.0 μM; “D” represents values from >5.0 μM to ≤10 μM; and “E” represents values>10 μM.

The nature of series [2]: Mitochondria toxicity assay with PC3 cells, in-cell ELISA COX-1. The settings on record: 5 days treatment. The method in brief:
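This in-cell ELISA was run on fixed, permeabilized PC3 cells after 5-day exposure to titrated compound, with cytotoxicity measured on a duplicate plate. Results are reported as categories A (<1.0 μM) to E (>100.0 μM).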
(In an ELISA, binding on a coated surface is turned into a signal by an enzyme label.)

Take `Nc1ccn([C@H]2C[C@H](O)[C@](CO)(CCl)O2)c(=O)n1` [Compound 2, 4-amino-1-((2R,4S,5R)-5-(chloromethyl)-4-hydroxy-5-(hydroxymethyl)tetrahydrofuran-2-yl)pyrimidin-2(1H)-one]: the values for the IC50 (in the series on PC3 cells; in series [1]; in series [2]) were greater than 100 µM, no more than 0.5 µM and less than 1 µM, respectively.

Consider `C[C@@H]1[C@H](n2ccc(N)nc2=O)O[C@@](CO)(CCl)[C@H]1O` [Compound 12, 4-amino-1-((2R,3S,4S,5R)-5-(chloromethyl)-4-hydroxy-5-(hydroxymethyl)-3-methyltetrahydrofuran-2-yl)pyrimidin-2(1H)-one], for which the values for the IC50 (with PC3 cells; in series [1]; in series [2]) were greater than 100 µM, greater than 10 µM and greater than 100 µM, respectively.

For the compound `CO[C@@H]1[C@H](n2ccc(N)nc2=O)O[C@@](CO)(CCl)[C@H]1O` [Compound 13, 4-amino-1-((2R,3S,4S,5R)-5-(chloromethyl)-4-hydroxy-5-(hydroxymethyl)-3-methoxytetrahydrofuran-2-yl)pyrimidin-2(1H)-one], the IC50 was greater than 100 µM in the series with PC3 cells, greater than 10 µM in series [1] and greater than 100 µM in series [2].

Consider `Nc1nc(=O)n([C@H]2C[C@H](O)[C@](CO)(CCl)O2)cc1F` [Compound 14, 4-amino-1-((2R,4S,5R)-5-(chloromethyl)-4-hydroxy-5-(hydroxymethyl)tetrahydrofuran-2-yl)-5-fluoropyrimidin-2(1H)-one], for which the IC50 was greater than 100 µM in the series on PC3 cells, 0.5 to 2 µM in series [1] and greater than 100 µM in series [2]. Besides, the cytotoxicity at concentrations in series [1] is no less than 30 µM.

Regarding `Nc1ncnc2c1ncn2[C@H]1C[C@H](O)[C@](CO)(CCl)O1` [Compound 15, (2R,3S,5R)-5-(6-amino-9H-purin-9-yl)-2-(chloromethyl)-2-(hydroxymethyl)tetrahydrofuran-3-ol], the IC50 in the series with PC3 cells was greater than 100 µM; in series [1], greater than 10 µM; in series [2], greater than 100 µM.

In the case of `Nc1ccn([C@H]2C[C@H](O)[C@](CO)(C3CC3)O2)c(=O)n1` [Compound 16, 4-amino-1-((2R,4S,5R)-5-cyclopropyl-4-hydroxy-5-(hydroxymethyl)tetrahydrofuran-2-yl)pyrimidin-2(1H)-one], the IC50 in the series on PC3 cells was greater than 100 µM; in series [1], greater than 10 µM; in series [2] it was greater than 100 µM.

As to `C[C@@H]1[C@H](n2ccc(N)nc2=O)O[C@](C)(CO)[C@H]1O` [Compound 19, 4-amino-1-((2R,3S,4S,5R)-4-hydroxy-5-(hydroxymethyl)-3,5-dimethyltetrahydrofuran-2-yl)pyrimidin-2(1H)-one], the IC50 in the series on PC3 cells is 50 to 100 µM; in series [1], greater than 10 µM; in series [2] it was 10 to 50 µM.

Turning to `C#C[C@]1(CO)O[C@@H](n2cnc3c(N)nc(Cl)nc32)C[C@@H]1O` [Compound 25], the values for the IC50 (in the series on PC3 cells; in series [2]) were greater than 100 µM and 50 to 100 µM, respectively.

With `Nc1ccn([C@@H]2O[C@@](CO)(CCl)[C@@H](O)[C@@H]2F)c(=O)n1` [Compound 40, 4-amino-1-((2R,3S,4R,5R)-5-(chloromethyl)-3-fluoro-4-hydroxy-5-(hydroxymethyl)tetrahydrofuran-2-yl)pyrimidin-2(1H)-one], the IC50 in the series on PC3 cells is greater than 100 µM; in series [1] it was 2 to 5 µM; in series [2] it was greater than 100 µM.

In the case of `CC[C@]1(CO)O[C@@H](n2ccc(N)nc2=O)C[C@@H]1O` [Compound 44, 4-amino-1-((2R,4S,5R)-5-ethyl-4-hydroxy-5-(hydroxymethyl)tetrahydrofuran-2-yl)pyrimidin-2(1H)-one], the IC50 with PC3 cells was greater than 100 µM; in series [1], greater than 10 µM; in series [2] it was greater than 100 µM.

As for `CC[C@]1(CO)O[C@@H](n2ccc(N)nc2=O)[C@@H](F)[C@@H]1O` [Compound 51, 4-amino-1-((2R,3S,4R,5R)-5-ethyl-3-fluoro-4-hydroxy-5-(hydroxymethyl)tetrahydrofuran-2-yl)pyrimidin-2(1H)-one], the IC50 in the series on PC3 cells was greater than 100 µM; in series [1], greater than 10 µM; in series [2], 10 to 50 µM.

Take `[N-]=[N+]=N[C@]1(CO)O[C@@H](n2cc(F)c(N)nc2=O)C[C@@H]1O` [Compound 61, 4-amino-1-((2R,4S,5R)-5-azido-4-hydroxy-5-(hydroxymethyl)tetrahydrofuran-2-yl)-5-fluoropyrimidin-2(1H)-one]: the IC50 with PC3 cells was greater than 100 µM; in series [1] it was greater than 10 µM; in series [2] it was greater than 100 µM.

Turning to `Nc1nc(=O)n([C@@H]2O[C@@](CO)(CCl)[C@@H](O)[C@@H]2F)cc1F` [Compound 67, 4-amino-1-[(2R,3S,4R,5R)-5-(chloromethyl)-3-fluoro-4-hydroxy-5-(hydroxymethyl)oxolan-2-yl]-5-fluoropyrimidin-2-one], the IC50 was greater than 100 µM in the series with PC3 cells, 2 to 5 µM in series [1] and greater than 100 µM in series [2].

Regarding `Nc1nc(=O)n([C@@H]2O[C@@](CO)(CF)[C@@H](O)[C@@H]2O)cc1F` [Compound 72, 4-amino-5-fluoro-1-((2R,3S,4S,5R)-5-(fluoromethyl)-3,4-dihydroxy-5-(hydroxymethyl)tetrahydrofuran-2-yl)pyrimidin-2(1H)-one], the IC50 in the series with PC3 cells is 50 to 100 µM; in series [1], 5 to 10 µM; in series [2], 50 to 100 µM.

Turning to `Nc1nc(=O)n([C@@H]2O[C@@](CO)(CF)[C@@H](O)[C@@H]2F)cc1F` [Compound 85, 4-amino-5-fluoro-1-[(2R,3S,4R,5R)-3-fluoro-5-(fluoromethyl)-4-hydroxy-5-(hydroxymethyl)oxolan-2-yl] pyrimidin-2-one], the IC50 with PC3 cells was greater than 100 µM; in series [1], 5 to 10 µM; in series [2] it was greater than 100 µM.

Regarding `Nc1nc(=O)n([C@H]2C[C@H](O)[C@](CO)(CBr)O2)cc1F` [Compound 88, 4-amino-1-((2R,4S,5R)-5-(bromomethyl)-4-hydroxy-5-(hydroxymethyl)tetrahydrofuran-2-yl)-5-fluoropyrimidin-2(1H)-one], the IC50 is greater than 100 µM with PC3 cells, greater than 10 µM in series [1] and 10 to 50 µM in series [2].
